Earlier results on one compound are cited in US6627665B2 (Arch Chemicals, Inc., priority 2001, dated 2003).

The data set relates to rats.

As for `On1ccccc1=S.On1ccccc1=S.[Cu]` [Copper pyrithione powder, copper pyrithione], the “acute inhalation toxicity relative to zinc pyrithione powder” value is reported as “more toxic than zinc pyrithione powder”.
